The assay concerns BDF1 mice, P815 leukemia ip, survival T/C. Briefly: NCI In Vivo Anticancer Drug Screen. Data for tumor model P815 Mast Cell Leukemia (Ascitic) (intraperitoneal) in B6D2F1 (BDF1) mice. As to conditions: higher = longer survival. The procedure: The antitumor activity of compounds was measured in mice bearing transplantable tumors. Survival or tumor size were measured and the results are expressed as the measurement made in the treated group (T) divided by the measurement made in the vehicle treated control group (C). The tumor model used in this assay is P815 Mast Cell Leukemia (Ascitic) (intraperitoneal) in B6D2F1 (BDF1) mice

[1] abbreviates: endpoint: survival time, mean or median, dose: 5.0 mg/kg/injection, schedule: Q01DX010 (ip), vehicle: saline.
Where [2] appears, read: endpoint: survival time, mean or median, dose: 5.0 mg/kg/injection, schedule: Q01DX015 (ip), vehicle: carboxymethylcellulose (CMC).
Where [3] appears, read: endpoint: survival time, mean or median, dose: 10.0 mg/kg/injection, schedule: Q01DX010 (ip), vehicle: saline.
The mark [4] stands for this setting: endpoint: survival time, mean or median, dose: 10.0 mg/kg/injection, schedule: Q01DX015 (ip), vehicle: carboxymethylcellulose (CMC).
[5] abbreviates: endpoint: survival time, mean or median, dose: 20.0 mg/kg/injection, schedule: Q01DX015 (ip), vehicle: carboxymethylcellulose (CMC).
Setting [6] is: endpoint: survival time, mean or median, dose: 40.0 mg/kg/injection, schedule: Q01DX010 (ip), vehicle: saline.
Where [7] appears, read: endpoint: survival time, mean or median, dose: 62.5 mg/kg/injection, schedule: Q01DX010 (ip), vehicle: saline.
Setting [8] is: endpoint: survival time, mean or median, dose: 125.0 mg/kg/injection, schedule: Q01DX010 (ip), vehicle: saline.
The mark [9] stands for this setting: endpoint: survival time, mean or median, dose: 250.0 mg/kg/injection, schedule: Q01DX010 (ip), vehicle: saline.
Setting [10] is: endpoint: survival time, mean or median, dose: 500.0 mg/kg/injection, schedule: Q01DX010 (ip), vehicle: saline.
Setting [11] is: endpoint: survival time, mean or median, dose: 2.0 mg/kg/injection, schedule: Q01DX010 (ip), vehicle: saline.
Where [12] appears, read: endpoint: survival time, mean or median, dose: 4.0 mg/kg/injection, schedule: Q01DX010 (ip), vehicle: saline.
Where [13] appears, read: endpoint: survival time, mean or median, dose: 8.0 mg/kg/injection, schedule: Q01DX010 (ip), vehicle: saline.
Where [14] appears, read: endpoint: survival time, mean or median, dose: 16.0 mg/kg/injection, schedule: Q01DX010 (ip), vehicle: saline.
Where [15] appears, read: endpoint: survival time, mean or median, dose: 64.0 mg/kg/injection, schedule: Q01DX010 (ip), vehicle: saline.

“And” between values parts separate entries of the source, which are not always exact repeats. Identical values can stand only once. Inconclusive results and toxic doses are left out.

As for `O=c1[nH]cc(F)c(=O)[nH]1`, the T/C is, setting by setting: (endpoint: median survival time, dose: 80.0 mg/kg/injection, schedule: Q04DX003 (ip), vehicle: saline) 118 % of control; under setting [1], 150 % of control; under setting [2], 162 % of control; under setting [3], 194 % of control and 150 % of control; under setting [4], 174 % of control; (endpoint: survival time, mean or median, dose: 15.0 mg/kg/injection, schedule: Q01DX015 (ip), vehicle: carboxymethylcellulose (CMC)) 199 % of control and 174 % of control. The T/C is 195 % of control and 216 % of control (endpoint: survival time, mean or median, dose: 20.0 mg/kg/injection, schedule: Q01DX010 (ip), vehicle: saline); 189 % of control under setting [5]; 95 % of control and 111 % of control under setting [6].
With `O=C(Nc1ccc(C2=NCCN2)cc1)c1cc(Cl)cc(C(=O)Nc2ccc(C3=NCCN3)cc2)c1`, the T/C is, setting by setting: (endpoint: survival time, mean or median, dose: 140.0 mg/kg/injection, schedule: Q01DX010 (ip), vehicle: saline) 91 % of control; (endpoint: survival time, mean or median, dose: 210.0 mg/kg/injection, schedule: Q01DX010 (ip), vehicle: saline) 95 % of control; (endpoint: survival time, mean or median, dose: 315.0 mg/kg/injection, schedule: Q01DX010 (ip), vehicle: saline) 86 % of control; (endpoint: survival time, mean or median, dose: 473.0 mg/kg/injection, schedule: Q01DX010 (ip), vehicle: saline) 91 % of control.
For the compound `Nc1ncnc2[nH]ncc12`, the T/C was 100 % of control (endpoint: survival time, mean or median, dose: 1.5 mg/kg/injection, schedule: Q01DX010 (ip), vehicle: saline); 100 % of control (endpoint: survival time, mean or median, dose: 3.0 mg/kg/injection, schedule: Q01DX010 (ip), vehicle: saline); 100 % of control and 104 % of control (endpoint: survival time, mean or median, dose: 6.0 mg/kg/injection, schedule: Q01DX010 (ip), vehicle: saline); 100 % of control and 109 % of control (endpoint: survival time, mean or median, dose: 12.0 mg/kg/injection, schedule: Q01DX010 (ip), vehicle: saline).
In the case of `O=CCC(O)C(O)C(O)CO` (configuration not stated), the T/C under setting [7] is 94 % of control and 97 % of control; the T/C under setting [8] was 97 % of control and 105 % of control; the T/C under setting [9] is 105 % of control and 107 % of control; the T/C under setting [10] was 102 % of control.
As to `CCCCN(CCCC)CCCCCN`, the T/C was 111 % of control under setting [2]; 103 % of control under setting [4]; 104 % of control under setting [5]; 105 % of control (endpoint: survival time, mean or median, dose: 30.0 mg/kg/injection, schedule: Q01DX015 (ip), vehicle: carboxymethylcellulose (CMC)).
Take `CC(=O)OCC1OC(n2cnc3c(=S)nc(N)[nH]c32)C(OC(C)=O)C1OC(C)=O` (configuration not stated): the T/C is, setting by setting: (endpoint: survival time, mean or median, dose: 1.5 mg/kg/injection, schedule: Q01DX015 (ip), vehicle: other) 113 % of control; (endpoint: survival time, mean or median, dose: 3.1 mg/kg/injection, schedule: Q01DX015 (ip), vehicle: other) 110 % of control; (endpoint: survival time, mean or median, dose: 6.2 mg/kg/injection, schedule: Q01DX015 (ip), vehicle: other) 108 % of control; (endpoint: survival time, mean or median, dose: 12.5 mg/kg/injection, schedule: Q01DX015 (ip), vehicle: other) 88 % of control.
On to `Nc1nc(N)c2nc(CNc3ccc(C(=O)NC(CCC(=O)O)C(=O)O)cc3)cnc2n1` (configuration not stated), for which the T/C is 102 % of control and 105 % of control (endpoint: survival time, mean or median, dose: 0.03 mg/kg/injection, schedule: Q01DX010 (ip), vehicle: other); 100 % of control and 102 % of control (endpoint: survival time, mean or median, dose: 0.05 mg/kg/injection, schedule: Q01DX010 (ip), vehicle: other); 100 % of control and 108 % of control (endpoint: survival time, mean or median, dose: 0.1 mg/kg/injection, schedule: Q01DX010 (ip), vehicle: other); 105 % of control and 108 % of control (endpoint: survival time, mean or median, dose: 0.2 mg/kg/injection, schedule: Q01DX010 (ip), vehicle: other).
On to `CC(C)CNS(=O)(=O)c1ncnc2nc[nH]c12`, for which the T/C (endpoint: survival time, mean or median, dose: 37.5 mg/kg/injection, schedule: Q01DX015 (ip), vehicle: carboxymethylcellulose (CMC)) is 97 % of control.
With `CCOC(N)=O`, the T/C reads like this: under setting [8], 100 % of control; under setting [9], 100 % of control and 118 % of control; under setting [10], 100 % of control and 104 % of control.
Regarding `CC(CCC(C)OS(C)(=O)=O)OS(C)(=O)=O` (configuration not stated), the T/C by setting is: under setting [11], 100 % of control; under setting [12], 100 % of control and 105 % of control; under setting [13], 100 % of control and 105 % of control; under setting [14], 120 % of control.
For the compound `Nc1nc(SCc2ccccc2)c2[nH]cnc2n1`, the T/C runs as follows: under setting [13], 100 % of control and 105 % of control; under setting [14], 100 % of control and 111 % of control; under setting [15], 100 % of control and 122 % of control.
For the compound `N#CCSc1ncnc2nc[nH]c12`, the T/C (endpoint: survival time, mean or median, dose: 7.5 mg/kg/injection, schedule: Q01DX010 (ip), vehicle: saline) was 100 % of control; the T/C (endpoint: survival time, mean or median, dose: 15.0 mg/kg/injection, schedule: Q01DX010 (ip), vehicle: saline) was 100 % of control and 111 % of control; the T/C (endpoint: survival time, mean or median, dose: 30.0 mg/kg/injection, schedule: Q01DX010 (ip), vehicle: saline) was 100 % of control and 111 % of control; the T/C (endpoint: survival time, mean or median, dose: 60.0 mg/kg/injection, schedule: Q01DX010 (ip), vehicle: saline) was 94 % of control and 122 % of control.
In the case of `c1ccc(CNc2ncnc3[nH]ncc23)cc1`, the T/C runs as follows: under setting [13], 100 % of control and 109 % of control; under setting [14], 100 % of control; (endpoint: survival time, mean or median, dose: 32.0 mg/kg/injection, schedule: Q01DX010 (ip), vehicle: saline) 109 % of control; under setting [15], 95 % of control and 109 % of control.
On to `CSc1ncnc2nc[nH]c12`, for which the T/C is, setting by setting: (endpoint: survival time, mean or median, dose: 25.0 mg/kg/injection, schedule: Q01DX010 (ip), vehicle: saline) 100 % of control; (endpoint: survival time, mean or median, dose: 50.0 mg/kg/injection, schedule: Q01DX010 (ip), vehicle: saline) 100 % of control and 115 % of control; (endpoint: survival time, mean or median, dose: 100.0 mg/kg/injection, schedule: Q01DX010 (ip), vehicle: saline) 100 % of control and 105 % of control; (endpoint: survival time, mean or median, dose: 200.0 mg/kg/injection, schedule: Q01DX010 (ip), vehicle: saline) 105 % of control and 110 % of control.
For the compound `O=C(Nc1cccc(NC(=O)Nc2cccc(C3=NCCN3)c2)c1)Nc1cccc(C2=NCCN2)c1`, the T/C is 121 % of control (endpoint: survival time, mean or median, dose: 27.0 mg/kg/injection, schedule: Q01DX010 (ip), vehicle: saline); 117 % of control under setting [6]; 113 % of control (endpoint: survival time, mean or median, dose: 66.0 mg/kg/injection, schedule: Q01DX010 (ip), vehicle: saline); 86 % of control (endpoint: survival time, mean or median, dose: 90.0 mg/kg/injection, schedule: Q01DX010 (ip), vehicle: saline).
With `N#[N+]c1cnc([O-])[nH]c1=O`, the T/C is, setting by setting: (endpoint: survival time, mean or median, dose: 1.25 mg/kg/injection, schedule: Q01DX010 (ip), vehicle: saline) 150 % of control; (endpoint: survival time, mean or median, dose: 2.5 mg/kg/injection, schedule: Q01DX010 (ip), vehicle: saline) 205 % of control; under setting [1], 215 % of control and 150 % of control; under setting [3], 205 % of control and 161 % of control.
For the compound `O=C(Nc1ccc(NC2=NCCN2)cc1)c1ccc(C(=O)Nc2ccc(NC3=NCCN3)cc2)cc1`, the T/C under setting [11] is 110 % of control and 111 % of control; the T/C under setting [12] was 105 % of control and 113 % of control.
Regarding `OCC1OC(n2cnc3c(Cl)ncnc32)C(O)C1O` (configuration not stated), the T/C reads like this: under setting [7], 104 % of control and 108 % of control; under setting [8], 100 % of control and 104 % of control; under setting [9], 91 % of control and 100 % of control; under setting [10], 95 % of control.
Consider `O=NN(CCCl)C(=O)NCCCl`, for which the T/C by setting is: (endpoint: survival time, mean or median, dose: 6.25 mg/kg/injection, schedule: Q01DX010 (ip), vehicle: saline) 245 % of control and 263 % of control; (endpoint: survival time, mean or median, dose: 12.5 mg/kg/injection, schedule: Q01DX010 (ip), vehicle: saline) 159 % of control.

The record behind these values is PubChem BioAssay AID318 (DTP/NCI, 2004).
